Reference: patent US20250057822A1, “PSYCHO[…] TREATING HEARING-RELATED DISORDERS” (THE REGENTS OF THE UNIVERSITY OF CALIFORNIA, priority 2021, published 2025)

What was measured:
[1] = test system: inner hair cell ribbon synapses (organ of Corti); assay: Inner hair cell ribbon synapse density 24 h after psilocin treatment; type: in vivo, mice; settings: 1 mg/kg, 24 h after treatment, mean±SEM
Procedure: C57/B6 female mice, aged 8-weeks-old were treated with psilocin (1 mg/kg) (n=3) and Vehicle (0.9% saline) (n=2). […] Synapse density increase was not significant in the 8 kHz region (Vehicle: 16.50±3.826, psilocin: 17.79±3.826, P=0.5554). For each animal, 17-22 inner hair cells were quantified per frequency (8 kHz and 16 kHz regions of the organ of Corti). Data are presented as mean±SEM.*p<0.05.
8-week old C57/B6 mice were injected with 1 mg/kg psilocin or vehicle control (0).9% saline). 24 h later, mice were euthanized then inner ear tissues were collected for immunofluorescence. Isolated cochlea were punched into oval and round windows using a syringe needle and rinsed/fixed with 4% paraformaldehyde in 1×cold PBS. Then, cochlea were further fixed in 4% paraformaldehyde in 1×cold PBS for additional 2 hours at 4C0. Following fixation, samples were rinsed 3×20 min in PBS and dissected under a stereomicroscope to the three turns: apical, middle and basal. Tissues were permeabilized in PBS+0.25% Triton X-100 solution for 10 min at room temperature on a rocking platform; blocked with 10% goat serum and 25 mM glycine for 1 h at RT. […]

[2] = test system: C57/B6 female mice; assay: Auditory brainstem response (ABR) assay, wave I amplitude; type: in vivo; settings: 1 mg/kg, 24 h post-treatment vs baseline (5-6 days pre-treatment), p<0.01, n=3
Procedure: The ABR amplitudes were analyzed at baseline (5-6 days pre-treatment) and 24 h post-treatment of vehicle (FIG. 2A and FIG. 2B) or 1 mg/kg of the psychoplastogen psilocin (FIG. 2C and FIG. 2D) at 8 and 16 kHz. Data are presented as mean±SEM. […] N=3 8-week old C57/B6 female mice per condition.
Auditory brainstem responses (ABRs) were recorded at baseline (5-6 days prior to treatment) and 24 h post treatment with psilocin (1 mg/kg). Mice were anesthetized via i.p. injections of ketamine (90 mg/kg) and xylazine (20 mg/kg). Subcutaneous electrodes were placed behind the right pinna (inverting) and vertex (active). A ground electrode was placed in the left leg of the mouse. Stimuli were 5-ms tone pips (2 ms cos2 rise-fall) delivered at 21/s with alternating stimulus polarity. Recorded electrical responses were filtered (300 Hz to 3 kHz) and averaged using BioSig software (TDT). The sound intensity level was decreased in 5 dB increments from 90 dB SPL-20 dB SPL. At each sound level 512 responses were averaged.
Wave I amplitudes were measured from the estimated baseline prior to the response to the peak of wave I in μV. ABR wave I amplitudes were analyzed at baseline (5-6 days pre-treatment) and 24 h post-treatment of psilocin (1 mg/kg). Data analyses and statistics were performed using Prism version 9.4 (GraphPad) and presented as mean±SEM. […]

For `CN(C)CCc1c[nH]c2cccc(O)c12` [psilocin], the “inner hair cell ribbon synapse density” value ([1]; 8 kHz region, not significant vs vehicle 16.50±3.826, P=0.5554) was 17.79±3.826, the “inner hair cell ribbon synapse density” value ([1]; 16 kHz region, significant vs vehicle 16±3.826, P=0.0169) was 23.27±3.826 and the “ABR wave I amplitude, change from baseline” value ([2]; 8 kHz) was “significantly increased”. For the same compound, the “ABR wave I amplitude, change from baseline” value ([2]; 16 kHz) was “significantly increased”.
